The results in this text go back to patent publication EP2951180B1, “2,6,7,8 SUBSTITUTED PURINES AS HDM2 INHIBITORS” (Merck Sharp & Dohme Corp., priority 2013, dated 2014).

The test has as its target T1, HDM2 (Homo sapiens, UniProt Q00987).
T1 construct: Thioredoxin (N); made in house; host or cells: E. coli strain BL21(DE3)Rosetta
Nature of the test: HDM2 FRET assay (inhibition of binding of FITC labeled p53-pocket peptide to HDM2). The conditions noted are these: read-out: FRET IC50. The method, boiled down: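 Final: 0.5 nM His-HDM2, 3 nM FITC peptide, 0.25 nM Tb anti-His Ab; PBS, 0.01% BSA, 0.01% Tween-20; 0.1% DMSO.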

[1] abbreviates: 0.5 nM HDM2 (residues 17 to 125), 3nM peptide, two hour incubation at room temperature.

Read-outs that look alike come from different tables or passages of the source.

T1 sequence (Q00987 17-125): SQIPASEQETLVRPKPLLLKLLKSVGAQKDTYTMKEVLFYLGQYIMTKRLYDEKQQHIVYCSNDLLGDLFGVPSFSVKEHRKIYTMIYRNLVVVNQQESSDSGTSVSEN

The IC50 is the concentration that gives 50% inhibition. For the compound `COCC(c1ccccc1)c1nc2nc(-c3noc(=O)[nH]3)nc(N[C@H](C)C3CCC3)c2n1C[C@H]1CC[C@H](C)CC1` (single isomer, unassigned) [Example 21.41, 3-(6-{[(1R)-1-cyclobutylethyl]amino}-8-[(1R or S)-2-methoxy-1-phenylethyl]-7-[(trans-4-methylcyclohexyl)methyl]-7H-purin-2-yl)-1,2,4-oxadiazol-5(4H)-one], the IC50 (Table 21) came out at 3.25 nM.
Turning to `C[C@H]1CC[C@H](Cn2c(N3CCC[C@H]3C(F)(F)F)nc3nc(-c4noc(=O)[nH]4)nc(-c4cncc(Cl)c4)c32)CC1` [Example 16.74, 3-{6-(5-chloropyridin-3-yl)-7-[(trans-4-methylcyclohexyl)methyl]-8-[(2S)-2-(trifluoromethyl)pyrrolidin-1-yl]-7H-purin-2-yl}-1,2,4-oxadiazol-5(4H)-one], under setting [1], the concentration for half-maximal inhibition (IC50) came out at 0.585 nM.
Same read-out and setting: in the case of `C[C@H]1OCCN(c2nc3nc(-c4noc(=O)[nH]4)nc(-c4cncc(Cl)c4)c3n2C[C@H]2CC[C@H](C)CC2)[C@@H]1c1ccccc1` [Example 16.135, 3-{6-(5-chloropyridin-3-yl)-7-[(trans-4-methylcyclohexyl)methyl]-8-[(2R,3R)-2-methyl-3-phenylmorpholin-4-yl]-7H-purin-2-yl}-1,2,4-oxadiazol-5(4H)-one] it was 0.504 nM.
Regarding `CC(c1ccccc1F)c1nc2nc(-c3noc(=O)[nH]3)nc(N[C@H](C)C3CCC3)c2n1C[C@H]1CC[C@H](C)CC1` (single isomer, unassigned) [Example 21.36], the IC50 (Table 21) came out at 43.1 nM.
In the case of `CC(Nc1nc2nc(-c3noc(=O)[nH]3)nc(N[C@H](C)C3CCC3)c2n1C[C@H]1CC[C@H](C)CC1)c1cscn1` (stereo partly drawn) [Example 11.88, 3-(6-{[(1R)-1-cyclobutylethyl]amino}-7-[(trans-4-methylcyclohexyl)methyl]-8-{[1-(1,3-thiazol-4-yl)ethyl]amino}-7H-purin-2-yl)-1,2,4-oxadiazol-5(2H)-one], where the note is “Table 11”, the IC50 was 3.83 nM.
Turning to `C[C@H]1CC[C@H](Cn2c(N3CCOC[C@H]3c3ccncc3)nc3nc(-c4n[nH]c(=O)o4)nc(-c4cccc(Cl)c4)c32)CC1` [Example 16.97, 5-{6-(3-chlorophenyl)-7-[(trans-4-methylcyclohexyl)methyl]-8-[(3R)-3-pyridin-4-ylmorpholin-4-yl]-7H-purin-2-yl}-1,3,4-oxadiazol-2(3H)-one], the IC50 under setting [1] is 3.81 nM.
With `C[C@@H](Nc1nc(-c2noc(=O)[nH]2)nc2nc(C3(c4cccc(F)c4)CC3)n(C[C@H]3CC[C@H](C)CC3)c12)C1CCC1` [Example 22.49, 3-(6-{[(1R)-1-cyclobutylethyl]amino}-8-[1-(3-fluorophenyl)cyclopropyl] -7-[(trans-4-methylcyclohexyl)methyl] -7H-purin-2-yl)-1,2,4-oxadiazol-5(4H)-one], the IC50 (Table 22) worked out at 16.9 nM.
As to `Cc1cccc(-c2nc3nc(C(=O)O)nc(NCc4ccccc4)c3n2Cc2ccc(C(F)(F)F)cc2)c1` [Example 6.29, 6-(benzylamino)-8-(3-methylphenyl)-7-[4-(trifluoromethyl)benzyl]-7H-purine-2-carboxylic acid], the half-inhibitory concentration (IC50) (Table 6) came out at 1770 nM.
For the compound `CC(c1ccccc1)c1nc2nc(-c3noc(=O)[nH]3)nc(N[C@H](C)C3CCC3)c2n1C[C@H]1CC[C@H](C)CC1` (single isomer, unassigned) [Example 21.14], the IC50 (Table 21) stood at 19.8 nM.
`CC[C@@H]1[C@@H](C)OCCN1c1nc2nc(-c3n[nH]c(=O)o3)nc(-c3cncc(Cl)c3)c2n1C[C@H]1CC[C@H](C)CC1` [Example 16.153, 5-{6-(5-chloropyridin-3-yl)-8-[(2R,3R)-3-ethyl-2-methylmorpholin-4-yl]-7-[(trans-4-methylcyclohexyl)methyl]-7H-purin-2-yl}-1,3,4-oxadiazol-2(3H)-one]: the 50% inhibitory concentration (IC50) under setting [1] turned out to be 10 nM.
Regarding `C[C@@H](Nc1nc(-c2noc(=O)[nH]2)nc2nc(N(C)Cc3cncs3)n(C[C@H]3CC[C@H](C)CC3)c12)C1CCC1` [Example 11.73, 3-(6-{[(1R)-1-cyclobutylethyl]amino}-7-[(trans-4-methylcyclohexyl)methyl]-8-[methyl(1,3-thiazol-5-ylmethyl)amino]-7H-purin-2-yl)-1,2,4-oxadiazol-5(2H)-one], the half-maximal inhibitory concentration (IC50) (Table 11) was determined as 11.5 nM.
In the case of `C[C@@H](Nc1nc(-c2noc(=O)[nH]2)nc2nc(C3(c4ccccc4)CCO3)n(C[C@H]3CC[C@H](C)CC3)c12)C1CCC1` (stereo partly drawn) [Example 22.81, 3-[6-{[(1R)-1-cyclobutylethyl]amino}-7-[(trans-4-methylcyclohexyl)methyl]-8-(2-phenyloxetan-2-yl)-7H-purin-2-yl]-1,2,4-oxadiazol-5(4H)-one], the IC50 (Table 22) turned out to be 11 nM.
`Cc1cccc(-c2nc3nc(C(=O)O)nc(N[C@H](C)C4CCC4)c3n2C[C@H]2CC[C@H](C)CC2)c1` [Example 15.14, 6-{[(1R)-1-cyclobutylethyl]amino}-7-[(trans-4-methylcyclohexyl)methyl]-8-(3-methylphenyl)-7H-purine-2-carboxylic acid]: the half-maximal inhibitory concentration (IC50) under setting [1] is 2.91 nM.
For the compound `Cc1noc(C(C)Nc2nc3nc(-c4noc(=O)[nH]4)nc(N[C@H](C)C4CCC4)c3n2C[C@H]2CC[C@H](C)CC2)n1` (stereo partly drawn) [Example 11.90, 3-(6-{[(1R)-1-cyclobutylethyl]amino}-7-[(trans-4-methylcyclohexyl)methyl]-8-{[1-(3-methyl-1,2,4-oxadiazol-5-yl)ethyl]amino} -7H-purin-2-yl)-1,2,4-oxadiazol-5(2H)-one], for the setting “Table 11”, the half-maximal inhibitory concentration (IC50) was found to be 4.04 nM.
Take `C[C@H](C1CCC1)N(C)c1nc(C(=O)O)nc2nc(-c3cc(C(C)(C)C)ccn3)n(C[C@H]3CC[C@H](C)CC3)c12` [Example 15.20, 8-(4-tert-butylpyridin-2-yl)-6-{[(1R)-1-cyclobutylethyl] (methyl)amino} -7-[(trans-4-methylcyclohexyl)methyl]-7H-purine-2-carboxylic acid]: under setting [1], the IC50 amounted to 17.9 nM.
The same measure, in the same setting: in the case of `C[C@@H](Nc1nc(N2CCC[C@]2(C)C(=O)O)nc2nc(N3CCOC[C@H]3c3ccccc3)n(C[C@H]3CC[C@H](C)CC3)c12)C1CCC1` [Example 13.7, 1-(6-{[(1R)-1-cyclobutylethyl]amino}-7-[(trans-4-methylcyclohexyl)methyl]-8-[(3R)-3-phenylmorpholin-4-yl]-7H-purin-2-yl)-2-methyl-D-proline] it was 224 nM.
As for `Cc1cccc(-c2nc3nc(C(=O)O)nc(NC4CCC(C)CC4C)c3n2Cc2ccc(C(F)(F)F)cc2)c1` (stereo not shown) [Example 6.33, 6-[(2,4-dimethylcyclohexyl)amino]-8-(3-methylphenyl)-7-[4-(trifluoromethyl)benzyl]-7H-purine-2-carboxylic acid], the concentration for half-maximal inhibition (IC50) (Table 6) amounted to 305 nM.
With `C[C@H]1CC[C@H](Cn2c(C3(c4ccccc4F)CC3)nc3nc(-c4noc(=O)[nH]4)nc(-c4cncc(Cl)c4)c32)CC1` [Example 23.100, 3-{6-(5-chloropyridin-3-yl)-8-[1-(2-fluorophenyl)cyclopropyl] -7-[(trans-4-methylcyclohexyl)methyl] -7H-purin-2-yl}-1,2,4-oxadiazol-5(4H)-one], the IC50 (Table 23) amounted to 5.94 nM.
`C[C@@H](Nc1nc(-c2n[nH]c(=O)o2)nc2nc(N3CCO[C@H]4CCCC[C@H]43)n(C[C@H]3CC[C@H](C)CC3)c12)C1CCC1` (single isomer, unassigned) [Example 11.162]: for the setting “Table 11”, the half-inhibitory concentration (IC50) turned out to be 7.4 nM.
